Like-named read-outs stand apart in the source and are kept apart here.
How the values were obtained:
[1] = In vivo stability: HPLC analysis of urine of injected mice; settings: mouse urine, 1 h p.i.
Protocol: To assess the in vivo stability of the radiocomplexes, samples of blood and urine were collected from the mice injected with the compounds and analyzed by HPLC.
(§1) Blood samples from mice injected with the tested radiocomplexes, collected at sacrifice time, were
(§2) centrifuged, the serum separated and treated with ethanol (1:2 proportion) to precipitate the proteins
(§3) and the supernatant was analyzed by HPLC for stability evaluation. The urine samples were centrifuged
(§4) at 3000 rpm for 10 min and the supernatant was also analyzed by HPLC.

[2] = Biodistribution of [111In]In-radiocomplexes in healthy mice; assay type: in vivo
Protocol: We performed a biodistribution study of the four [^111In]In-radiocomplexes in healthy mice to determine the clearance rate from systemic blood circulation and the tissue/organ distribution over time. […] The urinary tract was identified as the main excretory pathway since the highest % I.D./g values were found in the kidneys for all the radiocomplexes, associated to rapid radioactivity excretion both at 15 min and 1 h p.i. […] page 9: from whole animal body. Blood samples were taken by cardiac puncture at sacrifice. […] The animals were kept under […] volume of approximate 390 ± 190 mm3. […] […] carried out on groups of 8 mice (n = 4). […] The animals were weighed and dissected.

[3] = Lipophilicity, octanol-water partition coefficient by shake-flask method; assay type: physicochemical; settings: 1-octanol / PBS pH 7.4
Protocol: Given the limited effect of the pegylated linker on the plasmatic half-life, we focused our successive in vitro stability studies and lipophilicity measurements on the two non-pegylated derivatives [^111In]In-DOTA-Tz and [^111In]In-DOTAGA-Tz. The lipophilicity was evaluated by determination of their partition coefficient log Po/w using the shake-flask method. […] In HS the stability was very good up to 2 h of incubation, but after 4 h of incubation, the degradation started to be quite important with 50 and 30% of the compound degraded for [^111In]In-DOTA-Tz and [^111In]In-DOTAGA-Tz, respectively. […] Taken together, excellent stability of the two [^111In]In-radiocomplexes was observed both in CCM and HS at 37°C for incubation times up to 2 h. […]
Lipophilicity Determination
After phase separation, aliquots

[4] = In vitro stability of [111In]In-radiocomplexes in cell culture media, human serum and PBS at 37 °C (HPLC); assay type: in vitro ADME
Protocol: Given the limited effect of the pegylated linker on the plasmatic half-life, we focused our successive in vitro stability studies and lipophilicity measurements on the two non-pegylated derivatives [^111In]In-DOTA-Tz and [^111In]In-DOTAGA-Tz. The lipophilicity was evaluated by determination of their partition coefficient log Po/w using the shake-flask method. […] In HS the stability was very good up to 2 h of incubation, but after 4 h of incubation, the degradation started to be quite important with 50 and 30% of the compound degraded for [^111In]In-DOTA-Tz and [^111In]In-DOTAGA-Tz, respectively. […] Taken together, excellent stability of the two [^111In]In-radiocomplexes was observed both in CCM and HS at 37°C for incubation times up to 2 h.
[111In]In-Radiocomplexes: In vitro and in vivo stability
radiolabelled compound dissolved in different media. For the evaluation of the stability in PBS, Cell
times the volume of the desired medium.
The radiocomplexes incubated in Human
The urine samples were centrifuged
during six days by ITLC analysis.

[5] = cell culture media, 37 °C, up to 24 hours
Protocol: The in vitro stability of the radiocomplexes was studied by ITLC and HPLC analysis of aliquots of the
Culture Media and Human Serum a suitable volume of the radioactive complexes was diluted into 4
times the volume of the desired medium. The mixtures were incubated at 37 °C and aliquots were taken
at the different time points and analysed by HPLC and ITLC. The radiocomplexes incubated in Human
Serum were first treated with a four-times bigger volume of cold ethanol to induce protein precipitation.
After centrifugation during 10 minutes at 5000 rpm, the supernatants were separated from the pellets
as §1, §2, §3, §4
The in vitro stability of the radioconjugate [111In]-DOTA-Tz-TCO-PEG4-AR was evaluated by
incubation at 37 °C in cell culture media (CCM), in human serum (HS) and in PBS during 24 hours.

in vivo = settings: male, NodCB17 SCID, mouse, iv, total radioactivity
Source text: from whole animal body. Blood samples were taken by cardiac puncture at sacrifice. Tissue samples of the main organs were then dissected, weighted and counted in a gamma counter (Berthold).
Biodistribution results were expressed as percentage of the injected dose per gram tissue (%I.D./g) in the form of an average with standard deviation (%ID/g; mean ± standard deviation (SD).
Biodistribution in PC3 bearing mice
Male, 5-6 weeks old NodCB17 SCID mice were obtained from Janvier Lab., France. Mice were housed under pathogen-free conditions with food and water ad libitum, and a 12-12 hour light-dark cycle.
Veterinarian staff and investigators observed the mice daily to ensure animal welfare and determine if human endpoints (e.g., hunched and ruffled appearance, apathy, ulceration, severe weight loss, tumour burden) were reached. The mice were subcutaneously injected in the shoulder with 200 µL bolus containing a suspension of […] freshly harvested human prostatic cell line PC3 in Matrigel™ Basement Membrane Matrix (BD Sciences) under anaesthesia with 2% isoflurane. The animals were kept under pathogen-free condition and experiments were performed 2–3 weeks later when a tumour reached a volume of approximate 390 ± 190 mm3. Animals were allocated into treatment groups using a complete […]
The examination of physiological distribution for [90Y]Y-DOTA-Tz were carried out on 4 mice (n = 4). For the control bolus, 0.061 nmol, 0.1 mL, 7.5 µCi of [90Y]Y-DOTA-Tz was intravenously injected by tail vein. The examination of physiological distribution for [90Y]Y-DOTA-Tz-TCO-PEG4-AR were carried out on groups of 8 mice (n = 4). For the control bolus, 0.061 nmo l, 0.1 mL, 7.5 µCi of 90Y-DOTA-Tz TCO-PEG4-AR was intravenously injected by tail vein. At appropriate time points (15 min, 1h or 2h after-injection), the animals were euthanized, tissues of interest were dissected, weighted, and their radioactivity was measured using NaI gamma counter supplied with adapter for the whole-body […]
Biodistribution of 111In-DOTA-Tz-TCO-PEG4-AR was performed by intravenous injection of 100 µL (50 – 75 µCi) of the preparation into mice (n =4) via the tail vein. Immediately after injection, radioactive dosage administered into each animal was measured in a dose calibrator (Capintec CRC25R). For the in vivo click chemistry studies in the same PC3 xenografts (n=3), a bolus of 1 nmol of TCO-PEG4-AR, dissolved in 0.1 mL of saline, was injected in the tail vein, and after 4h the [111In]In-DOTA-Tz (0.1mL, 50 – 75 µCi µCi). After 1 h of administration of the radioactive preparations, the mice groups were sacrificed by cervical dislocation and the radioactivity in the sacrificed animal was measured. The difference between the radioactivity in the injected and the sacrificed animal was assumed to be due to total excretion. The animals were weighed and dissected. Then, tissues of interest were removed, weighed and counted in a γ-counter (Berthold, LB211, Germany).
For all the performed biodistribution studies, selected organs and tissues were assayed for their radioactivity and weighted. The physiological distribution was then calculated and expressed in terms of the percentage of the administrated radioactivity found in each of the selected organs or tissues per gram (%ID/g) in the form of an average with standard deviation (%ID/g; mean ± standard deviation
(1 picture or pasted object on this page, not shown here)

| SMILES | in vivo stability / metabolization (urine HPLC) [1] | Biodistribution: Blood ([2]; 15 min p.i.) [% I.D./g] | Biodistribution: Bone ([2]; 15 min p.i.) [% I.D./g] | Biodistribution: Heart ([2]; 15 min p.i.) [% I.D./g] | Biodistribution: Intestine ([2]; 15 min p.i.) [% I.D./g] | Biodistribution: Kidney ([2]; 15 min p.i.) [% I.D./g] | Biodistribution: Liver ([2]; 15 min p.i.) [% I.D./g] | Biodistribution: Lung ([2]; 15 min p.i.) [% I.D./g] | Biodistribution: Muscle ([2]; 15 min p.i.) [% I.D./g] | Biodistribution: Pancreas ([2]; 15 min p.i.) [% I.D./g] | Biodistribution: Spleen ([2]; 15 min p.i.) [% I.D./g] | Biodistribution: Stomach ([2]; 15 min p.i.) [% I.D./g] | Excretion ([2]; 15 min p.i.) [% I.D.] | Biodistribution: Blood ([2]; 1 h p.i.) [% I.D./g] | Biodistribution: Bone ([2]; 1 h p.i.) [% I.D./g] | Biodistribution: Heart ([2]; 1 h p.i.) [% I.D./g] | Biodistribution: Intestine ([2]; 1 h p.i.) [% I.D./g] | Biodistribution: Kidney ([2]; 1 h p.i.) [% I.D./g] | Biodistribution: Liver ([2]; 1 h p.i.) [% I.D./g] | Biodistribution: Lung ([2]; 1 h p.i.) [% I.D./g] | also measured |
| --- | --- | --- | --- | --- | --- | --- | --- | --- | --- | --- | --- | --- | --- | --- | --- | --- | --- | --- | --- | --- | --- |
| O=C([O-])CN1CCN(CC(=O)[O-])CCN(CC(=O)NCCOCCOCCOCCOCCOCCOCCOCCOCCOCCOCCOCCNC(=O)CCCC(=O)NCc2ccc(-c3nncnn3)cc2)CCN(CC(=O)[O-])CC1.[111In+3] [[111In]In-DOTA-PEG-Tz] | overall low degree of metabolization | 3.1 ± 0.4 | 0.78 ± 0.08 | 1.0 ± 0.2 | 0.32 ± 0.05 | 5.8 ± 1.3 | 1.1 ± 0.2 | 1.6 ± 0.3 | 0.9 ± 0.2 | 0.53 ± 0.07 | 0.66 ± 0.28 | 0.5 ± 0.3 | 65.3 ± 5.4 | 0.44 ± 0.07 | 0.11 ± 0.01 | 0.15 ± 0.08 | 0.05 ± 0.01 | 1.9 ± 0.3 | 0.70 ± 0.30 | 0.36 ± 0.04 | Biodistribution: Muscle ([2]; 1 h p.i.): 0.10 ± 0.02 % I.D./g; Biodistribution: Pancreas ([2]; 1 h p.i.): 0.09 ± 0.01 % I.D./g; Biodistribution: Spleen ([2]; 1 h p.i.): 0.18 ± 0.04 % I.D./g; Biodistribution: Stomach ([2]; 1 h p.i.): 0.09 ± 0.02 % I.D./g; Excretion ([2]; 1 h p.i.): 93.6 ± 0.8 % I.D.; Excretion ([2]; 1 h p.i., listed as [^111In]In-DOTA-PEG-Tz): above 90 % I.D. |
| O=C([O-])CN1CCN(CC(=O)[O-])CCN(C(CCC(=O)NCc2ccc(-c3nncnn3)cc2)C(=O)[O-])CCN(CC(=O)[O-])CC1.[111In+3] (centres unmarked) [[111In]In-DOTAGA-Tz] | overall low degree of metabolization | 3.2 ± 0.7 | 1.2 ± 0.2 | 0.9 ± 0.2 | 0.4 ± 0.1 | 7.2 ± 0.4 | 1.6 ± 0.4 | 1.9 ± 0.4 | 0.9 ± 0.2 | 0.6 ± 0.1 | 0.6 ± 0.1 | 0.6 ± 0.3 | 62.7 ± 1.5 | 1.1 ± 0.3 | 0.5 ± 0.1 | 0.4 ± 0.1 | 0.26 ± 0.09 | 3.6 ± 1.0 | 1.0 ± 0.3 | 0.8 ± 0.2 | log Po/w [3]: −3.44 ± 0.29; Biodistribution: Muscle ([2]; 1 h p.i.): 0.27 ± 0.07 % I.D./g; Biodistribution: Pancreas ([2]; 1 h p.i.): 0.3 ± 0.1 % I.D./g; Biodistribution: Spleen ([2]; 1 h p.i.): 0.3 ± 0.1 % I.D./g; Biodistribution: Stomach ([2]; 1 h p.i.): 0.3 ± 0.2 % I.D./g; Excretion ([2]; 1 h p.i.): 81.5 ± 5.1 % I.D.; Biodistribution: Kidney ([2]; 1 h p.i., listed as [^111In]In-DOTAGA-Tz): 3.6 ± 1 % I.D./g; stability in PBS ([4]; PBS, 24 h at 37°C): > 85%; level of degradation in CCM ([4]; cell culture media, 37°C, after 24 h): 70%; stability in CCM ([4]; cell culture media, 37°C, first 4 h of incubation): very good stability; stability in HS ([4]; human serum, 37°C, 24 h of incubation): almost completely degraded; compound degraded in HS ([4]; human serum, 37°C, after 4 h of incubation): 30%; stability in HS ([4]; human serum, 37°C, up to 2 h of incubation): very good |
| CC(C)C[C@H](NC(=O)C[C@H](O)[C@H](CC(C)C)NC(=O)[C@H](Cc1c[nH]cn1)NC(=O)CNC(=O)[C@@H](NC(=O)[C@H](C)NC(=O)[C@H](Cc1c[nH]c2ccccc12)NC(=O)[C@H](CCC(N)=O)NC(=O)[C@@H](Cc1ccccc1)NC(=O)CCOCCOCCOCCOCCNC(=O)OC1CCCC2=CNN=C(c3ccc(CNC(=O)CN4CCN(CC(=O)O)CCN(CC(=O)O)CCN(CC(=O)O)CC4)cc3)C2CC1)C(C)C)C(N)=O (some centres unmarked) [[111In]In-DOTA-Tz-TCO-PEG4-AR, metal not drawn] |  |  |  |  |  |  |  |  |  |  |  |  |  |  |  |  |  |  |  |  | stability in CCM [5]: excellent stabilities in CCM, with no degradation issues; tissue uptake at 1 h (in vivo; blood): 1.2 ± 0.4 %ID/g; tissue uptake at 1 h (in vivo; bone): 0.5 ± 0.1 %ID/g; tissue uptake at 1 h (in vivo; heart): 0.5 ± 0.3 %ID/g; tissue uptake at 1 h (in vivo; intestine): 1.09 ± 0.08 %ID/g; tissue uptake at 1 h (in vivo; kidney): 3.7 ± 1.1 %ID/g; tissue uptake at 1 h (in vivo; liver): 0.74 ± 0.06 %ID/g; tissue uptake at 1 h (in vivo; lung): 0.7 ± 0.2 %ID/g; tissue uptake at 1 h (in vivo; muscle): 0.3 ± 0.11 %ID/g; tissue uptake at 1 h (in vivo; spleen): 0.4 ± 0.1 %ID/g; tissue uptake at 1 h (in vivo; stomach): 0.9 ± 0.2 %ID/g; tissue uptake at 1 h (in vivo; tumour): 2.5 ± 0.7 %ID/g |

— publication PMC8225959, “Clickable Radiocomplexes With Trivalent Radiometals for Cancer Theranostics: In vitro and in vivo Studies” (Frontiers in Medicine, 2021)
